In PubChem BioAssay (NCI):
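1) Cells in 96-well plates. 2) Compound, 48 h, 5 concentrations. 3) Linear interpolation between surrounding doses. 4) Unreached endpoint = highest concentration. GI50 marks 50% less growth. TGI marks complete inhibition of growth.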

Experiments:
Test in all cases: inhibition of tumour cell growth, NCI panel, 48 h
[1] = system: SN12C renal
[2] = system: HCC-2998 colon
[3] = system: RPMI-8226 leukemia
[4] = system: OVCAR-3 ovarian
[5] = system: SK-MEL-28 melanoma
[6] = system: UO-31 renal
[7] = system: CCRF-CEM leukemia
[8] = system: SW-620 colon
[9] = system: CAKI-1 renal
[10] = system: SK-OV-3 ovarian
[11] = system: HT29 colon
[12] = system: NCI-H522 lung
[13] = system: SK-MEL-5 melanoma
[14] = system: HOP-92 NSCLC
[15] = system: 786-0 renal
[16] = system: LOX IMVI melanoma
[17] = system: MALME-3M melanoma
[18] = system: DU-145 prostate
[19] = system: K-562 leukemia
[20] = system: T-47D breast
[21] = system: HS 578T breast
[22] = system: SR leukemia
[23] = system: M14 melanoma
[24] = system: NCI-H460 lung
[25] = system: A498 renal
[26] = system: OVCAR-4 ovarian
[27] = system: SF-268 CNS
[28] = system: MCF7 breast
[29] = system: TK-10 renal
[30] = system: A549 NSCLC
[31] = system: ACHN renal
[32] = system: RXF 393 renal
[33] = system: PC-3 prostate
[34] = system: HCT-15 colon
[35] = system: OVCAR-8 ovarian
[36] = system: HL-60(TB) leukemia
[37] = system: HOP-62 NSCLC
[38] = system: KM12 colon
[39] = system: MOLT-4 leukemia
[40] = system: SF-295 CNS
[41] = system: NCI-H226 lung
[42] = system: OVCAR-5 ovarian
[43] = system: NCI-H23 lung
[44] = system: SK-MEL-2 melanoma
[45] = system: COLO 205 colon
[46] = system: SNB-19 CNS
[47] = system: NCI/ADR-RES ovarian
[48] = system: SNB-75 CNS
[49] = system: MDA-MB-435
[50] = system: MDA-MB-231 breast
[51] = system: BT-549 breast
[52] = system: HCT-116 colon
[53] = system: UACC-62 melanoma
[54] = system: EKVX NSCLC
[55] = system: SF-539 CNS
[56] = system: U251 CNS

Cc1ccc(N(CC(=O)Nc2ccc(S(=O)(=O)NC3CCN(C)CC3)cc2)S(=O)(=O)c2ccc(Cl)cc2)cc1
GI50 [1]: 3.05 µM | TGI [1]: 13.1 µM | GI50 [2]: 2.1 µM | TGI [2]: 5.25 µM | GI50 [3]: 2.71 µM | TGI [3]: 7.89 µM | GI50 [4]: 2.99 µM | TGI [4]: 8.77 µM | GI50 [5]: 1.95 µM | TGI [5]: 4.18 µM | GI50 [6]: 14.7 µM | TGI [6]: 30.3 µM | GI50 [7]: 2.94 µM | TGI [7]: 11.1 µM | GI50 [8]: 1.84 µM | TGI [8]: 3.61 µM | GI50 [9]: 14.7 µM | TGI [9]: 28.4 µM | GI50 [10]: 5.45 µM | TGI [10]: 17.8 µM | GI50 [11]: 2.88 µM | TGI [11]: 7.5 µM | GI50 [12]: 2.24 µM | TGI [12]: 4.62 µM | GI50 [13]: 1.83 µM | TGI [13]: 3.29 µM | GI50 [14]: 1.86 µM | TGI [14]: 8.64 µM | GI50 [15]: 2.08 µM | TGI [15]: 5.23 µM | GI50 [16]: 1.89 µM | TGI [16]: 3.76 µM | GI50 [17]: 1.72 µM | TGI [17]: 3.65 µM | GI50 [18]: 3.27 µM | TGI [18]: 11.2 µM | GI50 [19]: 2.23 µM | TGI [19]: 5 µM | GI50 [20]: 2.03 µM | TGI [20]: 4.47 µM | GI50 [21]: 2.27 µM | TGI [21]: 6.74 µM | GI50 [22]: 2.33 µM | TGI [22]: 7.46 µM | GI50 [23]: 1.79 µM | TGI [23]: 3.42 µM | GI50 [24]: 2.02 µM | TGI [24]: 4 µM | GI50 [25]: 13.4 µM | TGI [25]: 28.8 µM | GI50 [26]: 5.13 µM | TGI [26]: 19.7 µM | GI50 [27]: 2.67 µM | TGI [27]: 8.26 µM | GI50 [28]: 3.02 µM | TGI [28]: 13.1 µM | GI50 [29]: 13.7 µM | TGI [29]: 27 µM | GI50 [30]: 5 µM | TGI [30]: 16.3 µM | GI50 [31]: 12 µM | TGI [31]: 27.6 µM | GI50 [32]: 1.65 µM | TGI [32]: 3.84 µM | GI50 [33]: 2.86 µM | TGI [33]: 10.7 µM | GI50 [34]: 11.9 µM | TGI [34]: 27.5 µM | GI50 [35]: 3.61 µM | TGI [35]: 12.1 µM | GI50 [36]: 2.21 µM | TGI [36]: 4.93 µM | GI50 [37]: 3.96 µM | TGI [37]: 14.2 µM | GI50 [38]: 2.85 µM | TGI [38]: 8.25 µM | GI50 [39]: 2.97 µM | TGI [39]: 10.1 µM | GI50 [40]: 2.12 µM | TGI [40]: 5.49 µM | GI50 [41]: 5.37 µM | TGI [41]: 23.4 µM | GI50 [42]: 4.04 µM | TGI [42]: 17.1 µM | GI50 [43]: 10.1 µM | TGI [43]: 24.5 µM | GI50 [44]: 2.15 µM | TGI [44]: 4.86 µM | GI50 [45]: 1.89 µM | TGI [45]: 3.89 µM | GI50 [46]: 4.27 µM | TGI [46]: 21.5 µM | GI50 [47]: 16.8 µM | TGI [47]: 35.5 µM | GI50 [48]: 2.95 µM | TGI [48]: 15.7 µM | GI50 [49]: 1.86 µM | TGI [49]: 3.57 µM | GI50 [50]: 1.87 µM | TGI [50]: 4.68 µM | GI50 [51]: 12.6 µM | TGI [51]: 27.8 µM | GI50 [52]: 1.69 µM | TGI [52]: 3.2 µM | GI50 [53]: 1.74 µM | TGI [53]: 3.59 µM | GI50 [54]: 5.09 µM | TGI [54]: 19.8 µM | GI50 [55]: 1.85 µM | TGI [55]: 3.52 µM | GI50 [56]: 2.35 µM | TGI [56]: 5.83 µM
